For data set [1], the system named is Morningglory. Kind of data set: Percent weed control, 0 to 100% rating system. The data set is classed as in vivo. Conditions: Table 6. Here is the method: (§1) Percent weed control was determined by a method similar to the 0 to 100% rating system as described above and reproduced below for easy reference. The same weed control rating system also can be found such as in “Research Methods in Weed Science,” 2nd ed., B. Truelove, Ed.; Southern Weed Science Society; Auburn University, Auburn, Ala., 1977.

For data set [2], the system named is Velvetleaf. Kind of data set: Percent weed control, 0 to 100% rating system. It is filed as in vivo. Conditions: Table 6. Here is the method: as §1
In data set [3] the test system is wheat specie “Yellowstone”. Kind of data set: Percent wheat injury, visual rating 0-100%, greenhouse, post-emergence spray. The note with it: for Percent wheat injury 3 DAT / Percent wheat injury 7 DAT / Percent wheat injury 14 DAT / Injury: Yellowstone; for Injury / Percent injury on wheat, Yellowstone 3 DAT / Percent injury on wheat, Yellowstone 7 DAT / Percent injury on wheat, Yellowstone 14 DAT: Table 4; for Injury: time not stated; for Percent wheat injury, YELLOWSTONE (1) 3 DAT / Percent wheat injury, YELLOWSTONE (1) 7 DAT / Percent wheat injury, YELLOWSTONE (1) 14 DAT: Table 7 Test 1; for Percent wheat injury, YELLOWSTONE (1) 3 DAT / Percent wheat injury, YELLOWSTONE (1) 7 DAT / Percent wheat injury, YELLOWSTONE (1) 14 DAT / Percent wheat injury, YELLOWSTONE (2) 3 DAT / Percent wheat injury, YELLOWSTONE (2) 7 DAT / Percent wheat injury, YELLOWSTONE (2) 14 DAT: tank-mix; for Percent wheat injury, YELLOWSTONE (2) 3 DAT / Percent wheat injury, YELLOWSTONE (2) 7 DAT / Percent wheat injury, YELLOWSTONE (2) 14 DAT: Table 7 Test 2.

In data set [4] the test system is wheat variety “Jagger”. The data set is described as above. Conditions: for Injury / Percent injury on wheat, Jagger 3 DAT / Percent injury on wheat, Jagger 7 DAT / Percent injury on wheat, Jagger 14 DAT: Table 4; for Injury: Jagger, time not stated; for Percent wheat injury, JAGGER 3 DAT / Percent wheat injury, JAGGER 7 DAT / Percent wheat injury, JAGGER 14 DAT: Table 7 Test 1, tank-mix.

Setting [5] is: Table 2, carfentrazone-ethyl 25 g ai/ha.
[6] abbreviates: Table 3, carfentrazone-ethyl 50 g ai/ha.
Setting [7] is: carfentrazone-ethyl at 50 g, safened treatment as tank-mix or premix.
[8] abbreviates: fluthiacet-methyl 5.6 g ai/ha, 3 DAT.
Where [9] appears, read: fluthiacet-methyl 11.2 g ai/ha, 3 DAT.

Values joined by “and” are separate entries in the source; they are usually repeats but may differ in a detail not shown here. Equal values may be shown once. Where only a bound is given, the exact number is not on record here.

In the case of `CCOC(=O)C(Cl)Cc1cc(-n2nc(C)n(C(F)F)c2=O)c(F)cc1Cl` (centres unmarked) [Carfentrazone-ethyl, carfentrazone-ethyl], the “Percent weed control, Morningglory 3 DAT” value in data set [1] (carfentrazone-ethyl 25 g ai/ha) and in data set [1] (carfentrazone-ethyl 50 g ai/ha) was 90 (A) % throughout. The “Percent weed control, Morningglory 7 DAT” value in data set [1] (carfentrazone-ethyl 25 g ai/ha) and in data set [1] (carfentrazone-ethyl 50 g ai/ha) was 100 (A) % in each case. In addition, the “Percent weed control, Velvetleaf 3 DAT” value in data set [2] (carfentrazone-ethyl 25 g ai/ha) and in data set [2] (carfentrazone-ethyl 50 g ai/ha) was 90 (A) % each time. Besides, the “Percent weed control, Velvetleaf 7 DAT” value in data set [2] (carfentrazone-ethyl 25 g ai/ha) and in data set [2] (carfentrazone-ethyl 50 g ai/ha) was 100% throughout. Moreover, the “Percent wheat injury 3 DAT” value in data set [3] (Table 2, carfentrazone-ethyl 25 g ai/ha, 3 DAT) was 34% and 34 (A) %; in data set [3] (Table 2, carfentrazone-ethyl 25 g ai/ha, 3 DAT, listed as carfentrazone-ethyl), 34%; in data set [3] (Table 3, carfentrazone-ethyl 50 g ai/ha, 3 DAT) it was 43% and 43 (A) %. Besides, the “Percent wheat injury 7 DAT” value was 28 (A) % in data set [3] (setting [5]) and 36 (A) % in data set [3] (setting [6]). The entries for the “Percent wheat injury 14 DAT” value in data set [3] (setting [5]) and in data set [3] (setting [6]) were 15 (A) % and 20 (A) %, respectively. The Injury in data set [3] (carfentrazone-ethyl at 25 g) is recorded as above 35%; in data set [3] (setting [7]), above 40%; in data set [4] (carfentrazone-ethyl at 25 g), above 35%; in data set [4] (setting [7]) it was above 40%. For the same compound, the “Percent injury on wheat, Yellowstone 3 DAT” value in data set [3] (carfentrazone-ethyl 25 g ai/ha, 3 DAT) was 38%; in data set [3] (carfentrazone-ethyl 50 g ai/ha, 3 DAT), 44%. Further, the entries for the “Percent injury on wheat, Yellowstone 7 DAT” value in data set [3] (carfentrazone-ethyl 25 g ai/ha) and in data set [3] (carfentrazone-ethyl 50 g ai/ha) were 34% and 39%, respectively. Besides, the “Percent injury on wheat, Yellowstone 14 DAT” value in data set [3] (carfentrazone-ethyl 25 g ai/ha) turned out to be 24%; in data set [3] (carfentrazone-ethyl 50 g ai/ha) it was 28%. Further, the entries for the “Percent injury on wheat, Jagger 3 DAT” value in data set [4] (carfentrazone-ethyl 25 g ai/ha) and in data set [4] (carfentrazone-ethyl 50 g ai/ha) were 36% and 43%, respectively. For the same compound, the “Percent injury on wheat, Jagger 7 DAT” value in data set [4] (carfentrazone-ethyl 25 g ai/ha) came out at 34%; in data set [4] (carfentrazone-ethyl 50 g ai/ha) it was 38%. Further, the entries for the “Percent injury on wheat, Jagger 14 DAT” value in data set [4] (carfentrazone-ethyl 25 g ai/ha) and in data set [4] (carfentrazone-ethyl 50 g ai/ha) were 25% and 30%, respectively.

Consider `COC(=O)CSc1cc(/N=c2\sc(=O)n3n2CCCC3)c(F)cc1Cl` [F-M, fluthiacet-methyl], for which, in data set [3] (setting [8]), the “Percent wheat injury, YELLOWSTONE (1) 3 DAT” value was 12% and the “Percent wheat injury, YELLOWSTONE (2) 3 DAT” value stood at 16%. In addition, in data set [3] (fluthiacet-methyl 5.6 g ai/ha), the “Percent wheat injury, YELLOWSTONE (1) 7 DAT” value is listed as 12%; the “Percent wheat injury, YELLOWSTONE (1) 14 DAT” value is 12%; the “Percent wheat injury, YELLOWSTONE (2) 7 DAT” value was 11%; the “Percent wheat injury, YELLOWSTONE (2) 14 DAT” value stood at 12%. Also, in data set [3] (setting [9]), the “Percent wheat injury, YELLOWSTONE (1) 3 DAT” value came out at 36% and the “Percent wheat injury, YELLOWSTONE (2) 3 DAT” value is recorded as 40%. Further, in data set [3] (fluthiacet-methyl 11.2 g ai/ha), the “Percent wheat injury, YELLOWSTONE (1) 7 DAT” value came out at 34%; the “Percent wheat injury, YELLOWSTONE (1) 14 DAT” value is 34%; the “Percent wheat injury, YELLOWSTONE (2) 7 DAT” value was 36%; the “Percent wheat injury, YELLOWSTONE (2) 14 DAT” value worked out at 25%. In data set [4] (fluthiacet-methyl 5.6 g ai/ha), the “Percent wheat injury, JAGGER 3 DAT” value is 6%; the “Percent wheat injury, JAGGER 7 DAT” value stood at 8%; the “Percent wheat injury, JAGGER 14 DAT” value worked out at 10%. For the same compound, in data set [4] (fluthiacet-methyl 11.2 g ai/ha), the “Percent wheat injury, JAGGER 3 DAT” value was 35%; the “Percent wheat injury, JAGGER 7 DAT” value worked out at 35%; the “Percent wheat injury, JAGGER 14 DAT” value amounted to 19%.

In the case of `O=C1OC(=O)c2cccc3cccc1c23` [naphthalic anhydride], in data set [3] (text on Tables 2 and 3, safener applied with carfentrazone-ethyl, regardless of rate (25 or 50 g), 3 DAT), the “wheat injury in the presence of safener(s)” value is “greater than 25%”.

Values taken from US20190116791A1, “USE OF SAFENERS WITH PPO INHIBITOR HERBICIDES” (priority 2016, published 2019).
